Data as given in EPA's ToxRefDB 2.

Assays:
[1] = test system: rat; conditions: Sub-acute repeat dose toxicity, Oral, Gavage/Intubation, dose end: 4 day, group: systemic
[2] = test system: rat; conditions: Sub-acute repeat dose toxicity, Oral, Gavage/Intubation, dose end: 4 day, group: systemic; remark: listed apart in the source
[3] = test system: rat; conditions: Sub-acute repeat dose toxicity, Oral, Gavage/Intubation, dose end: 4 day, group: systemic; remark: listed apart in the source
[4] = test system: rat; conditions: Sub-acute repeat dose toxicity, Oral, Gavage/Intubation, dose end: 4 day, group: systemic; remark: listed apart in the source
[5] = test system: dog; conditions: Chronic toxicity, beagle, Oral, Feed, dose end: 52 week, group: systemic
[6] = test system: rat; conditions: Prenatal developmental toxicity study, wistar, Oral, Gavage/Intubation, dose end: 16 GD
[7] = test system: rabbit; conditions: Prenatal developmental toxicity study, himalayan, Oral, Gavage/Intubation, dose end: 18 GD, group: maternal
[8] = test system: rat; conditions: Multigenerational reproductive toxicity study, WIST Han Ibm: WIST ISPF, Oral, Feed, dose end: 2 generation
[9] = test system: rat; conditions: Combined chronic toxicity/carcinogenicity, sprague dawley, Oral, Feed, dose end: 24 month, group: systemic
[10] = test system: mouse; conditions: Carcinogenicity, cd1, Oral, Feed, dose end: 78 week, group: systemic
[11] = test system: rat; conditions: Combined chronic toxicity/carcinogenicity, sprague dawley, Oral, Feed, dose end: 24 month
[12] = test system: rat; conditions: Multigenerational reproductive toxicity study, sprague dawley, Oral, Feed, dose end: 2 generation
[13] = test system: dog; conditions: Chronic toxicity; beagle; Oral; Gavage/Intubation; dose end: 12 month; group: systemic; systemic / clinical chemistry / alkaline phosphatase (alp/alk) / alkaline phosphatase (alp/alk) + systemic / clinical chemistry / urea …
[14] = test system: rat; conditions: Multigenerational reproductive toxicity study, sprague dawley, Oral, Feed, dose end: 3 generation
[15] = test system: dog; conditions: Subchronic oral toxicity in nonrodent, beagle, Feed, dose end: 6 month, group: systemic, systemic / clinical chemistry / albumin-globulin ratio / albumin-globulin ratio + systemic / organ weight / liver / absolute + systemic / …
[16] = test system: rat; conditions: Sub-acute repeat dose toxicity, fischer, Oral, Feed, dose end: 28 day, group: systemic
[17] = test system: rat; conditions: Multigenerational reproductive toxicity study, sprague dawley, Oral, Gavage/Intubation, dose end: 1 generation
[18] = test system: rat; conditions: Carcinogenicity; fischer; Oral; Feed; dose end: 24 month; group: systemic; systemic / clinical chemistry / [other] / [other] + systemic / in life observation / body weight / body weight + systemic / in life …
[19] = test system: mouse; conditions: Prenatal developmental toxicity study; other; Oral; Gavage/Intubation; dose end: 18 GD; group: maternal; reproductive / reproductive performance / aborted / aborted + reproductive / reproductive performance / estrous cycle / corpora lutea
[20] = test system: rat; conditions: Subchronic oral toxicity in rodents, fischer, Feed, dose end: 13 week, group: systemic
[21] = systemic / organ weight / liver / absolute
[22] = systemic / organ weight / liver / absolute + systemic / in life observation / clinical signs / salivation + systemic / pathology microscopic…
[23] = systemic / in life observation / body weight / body weight + systemic / organ weight / liver / absolute + systemic / in life observation / …
[24] = systemic / in life observation / body weight / body weight + systemic / in life observation / clinical signs / abnormal respiratory sounds…
[25] = systemic / in life observation / clinical signs / abnormal respiratory sounds + systemic / in life observation / clinical signs / fur (…
[26] = systemic / clinical chemistry / alkaline phosphatase (alp/alk) / alkaline phosphatase (alp/alk) + systemic / organ weight / liver / absolute…
[27] = group: developmental, systemic / in life observation / body weight / fetal weight + systemic / in life observation / body weight / offspring (pup) weight gain
[28] = group: developmental, systemic / in life observation / body weight / fetal weight + systemic / in life observation / body weight / offspring (pup) weight gain + …
[29] = group: maternal, systemic / in life observation / body weight / body weight gain + systemic / in life observation / food consumption / food efficiency
[30] = group: maternal, systemic / in life observation / body weight / body weight gain + systemic / in life observation / food consumption / food efficiency + …
[31] = reproductive / reproductive performance / aborted / aborted + systemic / in life observation / body weight / body weight gain + systemic / …
[32] = group: offspring, systemic / in life observation / body weight / offspring (pup) weight + systemic / in life observation / body weight / offspring (pup) …
[33] = group: parental, systemic / in life observation / body weight / body weight + systemic / in life observation / body weight / body weight gain + systemic / …
[34] = systemic / in life observation / body weight / body weight gain + systemic / pathology microscopic / ovary / cyst + systemic / in life …
[35] = group: cholinesterase, cholinesterase / cholinesterase / cholinesterase / brain cholinesterase (che) + cholinesterase / cholinesterase / cholinesterase / …
[36] = group: systemic, systemic / pathology microscopic / nerve / cholesterol cleft(s) + systemic / pathology microscopic / nerve / mineralization + systemic / …
[37] = group: cholinesterase, cholinesterase / cholinesterase / cholinesterase / erythrocyte cholinesterase (che)
[38] = group: offspring, systemic / in life observation / body weight / offspring (pup) weight
[39] = group: offspring, systemic / in life observation / body weight / offspring (pup) weight + developmental / offspring survival late / lactation index / …
[40] = group: parental, systemic / in life observation / body weight / body weight + systemic / in life observation / body weight / body weight gain + systemic / in…
[41] = group: reproductive, reproductive / offspring survival early / litter size / litter size
[42] = group: offspring, systemic / in life observation / body weight / offspring (pup) weight + developmental / offspring survival late / viability index / …
[43] = group: parental, systemic / in life observation / body weight / body weight + systemic / in life observation / body weight / body weight gain
[44] = group: reproductive, reproductive / offspring survival early / live fetuses / live fetuses
[45] = systemic / in life observation / food consumption / food consumption + systemic / pathology microscopic / stomach / hyperkeratosis + …
[46] = systemic / pathology microscopic / stomach / papilloma + systemic / in life observation / body weight / body weight + systemic / in life …
[47] = group: offspring, developmental / developmental landmark / vaginal opening / vaginal opening + systemic / clinical chemistry / cholesterol / cholesterol + …
[48] = group: offspring, systemic / organ weight / spleen / absolute
[49] = group: parental, systemic / organ weight / adrenal gland / absolute + systemic / organ weight / liver / absolute + systemic / organ weight / liver / relative…
[50] = group: parental, systemic / pathology gross / sperm measure / sperm morphology
[51] = group: reproductive, reproductive / reproductive performance / mating / mating + reproductive / reproductive performance / estrous cycle / length
[52] = systemic / in life observation / body weight / body weight gain + systemic / pathology gross / stomach / thickened + systemic / pathology …

## CNCc1ccc(S(C)(=O)=O)cc1Oc1ccc2c(c1)CCCC2
[1]; [21]
  LEL: 30 mg/kg/day
  NEL: < 30 mg/kg/day
[1]; [22]
  LOAEL: > 100 mg/kg/day
  NOAEL: ≥ 100 mg/kg/day
[2]; [23]
  LOAEL: > 500 mg/kg/day
  NOAEL: ≥ 500 mg/kg/day
[2]; [21]
  LEL: 30 mg/kg/day
  NEL: < 30 mg/kg/day
[3]; [24]
  LOAEL: > 500 mg/kg/day
  NOAEL: ≥ 500 mg/kg/day
[3]; [21]
  LEL: 30 mg/kg/day
  NEL: < 30 mg/kg/day
[4]; [25]
  LOAEL: > 500 mg/kg/day
  NEL: 30 mg/kg/day
  NOAEL: ≥ 500 mg/kg/day
[4]; systemic / in life observation / clinical signs / salivation
  LEL: 100 mg/kg/day

## CCOC(=O)C1=NN(c2ccc(Cl)cc2Cl)C(C)(C(=O)OCC)C1 (stereo not given) [Mefenpyr-diethyl]
[5]; [26]
  LOAEL: 260 mg/kg/day
  NOAEL: 51.4 mg/kg/day
[5]; systemic / organ weight / liver / relative to body weight
  LEL: 57.6 mg/kg/day
[5]; systemic / organ weight / liver / relative to body weight + systemic / clinical chemistry / alkaline phosphatase (alp/alk) / alkaline …
  NEL: 11.1 mg/kg/day
[6]; [27]
  LOAEL: 1000 mg/kg/day
  NOAEL: < 1000 mg/kg/day
[6]; [28]
  LEL: 1000 mg/kg/day
  NEL: < 1000 mg/kg/day
[6]; [29]
  LOAEL: 1000 mg/kg/day
  NOAEL: < 1000 mg/kg/day
[6]; [30]
  LEL: 1000 mg/kg/day
  NEL: < 1000 mg/kg/day
[7]; reproductive / reproductive performance / aborted / aborted + reproductive / offspring survival early / live fetuses / live fetuses
  LOAEL: 250 mg/kg/day
[7]; reproductive / reproductive performance / aborted / aborted + reproductive / offspring survival early / live fetuses / live fetuses + …
  LEL: 250 mg/kg/day
[7]; [31]
  NEL: 100 mg/kg/day
  NOAEL: 100 mg/kg/day
[8]; [32]
  LEL: 250 mg/kg/day
  LOAEL: 250 mg/kg/day
  NEL: 50 mg/kg/day
  NOAEL: 50 mg/kg/day
[8]; [33]
  LEL: 250 mg/kg/day
  LOAEL: 250 mg/kg/day
  NEL: 50 mg/kg/day
  NOAEL: 50 mg/kg/day

## CCSC(=O)N(CC)C1CCCCC1 [Cycloate]
[9]; systemic / organ weight / heart / absolute
  LEL: 2.4 mg/kg/day
[9]; systemic / organ weight / heart / absolute + systemic / pathology microscopic / skeletal muscle / atrophy + systemic / pathology microscopic…
  NEL: 0.4 mg/kg/day
[9]; systemic / pathology microscopic / spinal cord / atrophy + systemic / pathology microscopic / spinal cord / degeneration
  LOAEL: 3.1 mg/kg/day
[9]; systemic / pathology microscopic / spinal cord / atrophy + systemic / pathology microscopic / spinal cord / degeneration + systemic / in …
  NOAEL: 0.5 mg/kg/day
[10]; systemic / in life observation / body weight / body weight gain + systemic / pathology microscopic / ovary / cyst
  LOAEL: 167 mg/kg/day
[10]; [34]
  LEL: 167 mg/kg/day
  NEL: 49 mg/kg/day
  NOAEL: 49 mg/kg/day
[11]; [35]
  LEL: 8 mg/kg/day
  LOAEL: 8 mg/kg/day
  NEL: < 8 mg/kg/day
  NOAEL: < 8 mg/kg/day
[11]; [36]
  LEL: 8 mg/kg/day
  LOAEL: 8 mg/kg/day
  NEL: < 8 mg/kg/day
  NOAEL: < 8 mg/kg/day
[12]; [37]
  LEL: 50 mg/kg/day
  LOAEL: > 50 mg/kg/day
  NEL: 20 mg/kg/day
  NOAEL: ≥ 50 mg/kg/day
[12]; [38]
  LEL: 20 mg/kg/day
  LOAEL: 20 mg/kg/day
[12]; [39]
  NEL: 2.5 mg/kg/day
  NOAEL: 2.5 mg/kg/day
[12]; [40]
  LEL: 20 mg/kg/day
  LOAEL: 20 mg/kg/day
  NEL: 2.5 mg/kg/day
  NOAEL: 2.5 mg/kg/day
[12]; [41]
  LEL: 50 mg/kg/day
  LOAEL: 50 mg/kg/day
  NEL: 20 mg/kg/day
  NOAEL: 20 mg/kg/day
[13]
  LEL: 50 mg/kg/day
  LOAEL: 50 mg/kg/day
  NEL: 0.5 mg/kg/day
  NOAEL: 0.5 mg/kg/day
[14]; [38]
  LEL: 24 mg/kg/day
  LOAEL: 24 mg/kg/day
[14]; [42]
  NEL: 8 mg/kg/day
  NOAEL: 8 mg/kg/day
[14]; [43]
  LEL: 24 mg/kg/day
  LOAEL: 24 mg/kg/day
  NEL: 8 mg/kg/day
  NOAEL: 8 mg/kg/day
[14]; [44]
  LEL: 72 mg/kg/day
  LOAEL: > 72 mg/kg/day
  NEL: 24 mg/kg/day
  NOAEL: ≥ 72 mg/kg/day

## COc1ccc(O)c(C(C)(C)C)c1 [Butylated hydroxyanisole]
[15]
  LEL: 54 mg/kg/day
  LOAEL: > 219 mg/kg/day
  NEL: < 54 mg/kg/day
  NOAEL: ≥ 219 mg/kg/day
[16]; [45]
  LEL: 350 mg/kg/day
  NEL: < 350 mg/kg/day
[16]; [46]
  LOAEL: > 1400 mg/kg/day
  NOAEL: ≥ 1400 mg/kg/day
[17]; [47]
  LOAEL: > 500 mg/kg/day
  NOAEL: ≥ 500 mg/kg/day
[17]; [48]
  LEL: 10 mg/kg/day
  NEL: < 10 mg/kg/day
[17]; [49]
  LOAEL: > 500 mg/kg/day
  NOAEL: ≥ 500 mg/kg/day
[17]; [50]
  LEL: 10 mg/kg/day
  NEL: < 10 mg/kg/day
[17]; group: reproductive, reproductive / reproductive performance / mating / mating
  NEL: 100 mg/kg/day
[17]; [51]
  LEL: 500 mg/kg/day
  LOAEL: > 500 mg/kg/day
  NOAEL: ≥ 500 mg/kg/day
[18]
  LEL: 1000 mg/kg/day
  LOAEL: > 1000 mg/kg/day
  NEL: < 1000 mg/kg/day
  NOAEL: ≥ 1000 mg/kg/day
[19]
  LEL: 500 mg/kg/day
  LOAEL: > 500 mg/kg/day
  NEL: < 500 mg/kg/day
  NOAEL: ≥ 500 mg/kg/day
[20]; systemic / clinical chemistry / [other] / [other]
  LEL: 250 mg/kg/day
[20]; systemic / clinical chemistry / [other] / [other] + systemic / in life observation / body weight / body weight gain + systemic / in life …
  NEL: 125 mg/kg/day
[20]; [52]
  LOAEL: > 1000 mg/kg/day
  NOAEL: ≥ 1000 mg/kg/day
